In PubChem BioAssay (NCI):
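In this assay, cells in 96-well plates receive the compound at five concentrations for 48 hours. Endpoints are linearly interpolated between the surrounding concentrations. The concentration for full growth arrest is given as TGI.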

Legend:
Experiment in all cases: NCI tumour cell line growth inhibition, 48 h
A498 renal = tested on: A498 renal
ACHN renal = tested on: ACHN renal
DU-145 prostate = tested on: DU-145 prostate
HOP-62 NSCLC = tested on: HOP-62 NSCLC
HOP-92 NSCLC = tested on: HOP-92 NSCLC
K-562 leukemia = tested on: K-562 leukemia
MDA-MB-231 breast = tested on: MDA-MB-231 breast
MDA-N = tested on: MDA-N
NCI-H226 lung = tested on: NCI-H226 lung
NCI-H23 lung = tested on: NCI-H23 lung
OVCAR-4 ovarian = tested on: OVCAR-4 ovarian
OVCAR-8 ovarian = tested on: OVCAR-8 ovarian
PC-3 prostate = tested on: PC-3 prostate
RPMI-8226 leukemia = tested on: RPMI-8226 leukemia
SF-268 CNS = tested on: SF-268 CNS
SK-MEL-5 melanoma = tested on: SK-MEL-5 melanoma
SN12C renal = tested on: SN12C renal
SNB-19 CNS = tested on: SNB-19 CNS
SW-620 colon = tested on: SW-620 colon
UACC-257 melanoma = tested on: UACC-257 melanoma

| Structure (SMILES) | TGI (A498 renal) | TGI (ACHN renal) | TGI (DU-145 prostate) | TGI (HOP-62 NSCLC) | TGI (HOP-92 NSCLC) | TGI (K-562 leukemia) | TGI (MDA-MB-231 breast) | TGI (MDA-N) | TGI (NCI-H226 lung) | TGI (NCI-H23 lung) | TGI (OVCAR-4 ovarian) | TGI (OVCAR-8 ovarian) | TGI (PC-3 prostate) | TGI (RPMI-8226 leukemia) | TGI (SF-268 CNS) | TGI (SK-MEL-5 melanoma) | TGI (SN12C renal) | TGI (SNB-19 CNS) | TGI (SW-620 colon) | TGI (UACC-257 melanoma) |
| --- | --- | --- | --- | --- | --- | --- | --- | --- | --- | --- | --- | --- | --- | --- | --- | --- | --- | --- | --- | --- |
| CCOC(=O)c1c(NC(=O)c2cccs2)sc2c1CCCC2 | > 96.3 µM | > 100 µM | > 100 µM | 55.3 µM | > 100 µM | > 100 µM | 69.8 µM | > 100 µM | > 100 µM | > 100 µM | > 100 µM | > 100 µM | > 100 µM | > 100 µM | 73.6 µM | > 100 µM | > 100 µM | > 81.2 µM | > 100 µM | > 100 µM |
| CC(C)(Cl)C(Br)CCC(C)(Cl)C(Br)CBr (stereo not given) | 49.6 µM | 52.6 µM | 85.2 µM | 57.3 µM | 46 µM | > 100 µM | 47.2 µM | 81.9 µM | 60.6 µM | 55.6 µM | 87.3 µM | > 100 µM | 71 µM | 42.2 µM | > 100 µM | 34.5 µM | 54.2 µM | > 100 µM | 95.5 µM | 51 µM |
| COC(=O)C1=C(C)NC2=C(C(=O)c3ccccc32)C1c1cn(-c2ccccc2)nc1-c1ccccc1 (stereo not given) | > 100 µM | > 100 µM | > 100 µM | > 100 µM | > 100 µM | > 100 µM | > 100 µM | > 100 µM | > 100 µM | > 100 µM | > 100 µM | > 100 µM | > 100 µM | > 100 µM | > 100 µM | > 100 µM | > 100 µM | > 100 µM | > 100 µM | > 100 µM |
| Nc1ccc(Oc2ccc(C34CC5CC6C3CC3CC4C(C5)C6(c4ccc(Oc5ccc(N)cc5)cc4)C3)cc2)cc1 | 55.7 µM | > 100 µM | > 100 µM | 53.6 µM | 11.7 µM | 40.5 µM | 65.7 µM | 19.1 µM | 71.4 µM | > 82.9 µM | > 100 µM | > 100 µM | 51.7 µM | 47.5 µM | > 72 µM | 5.27 µM | > 100 µM | > 61.4 µM | > 100 µM | > 32.5 µM |
| CC(C)(Br)C(Br)CCC1(C2CO2)CO1 (stereo not given) | > 5 µM | > 5 µM | > 5 µM | > 5 µM | > 5 µM | > 5 µM | > 5 µM | > 5 µM | > 5 µM | > 5 µM | > 5 µM | > 5 µM | > 5 µM | > 5 µM | > 5 µM | > 5 µM | > 5 µM | > 5 µM | > 5 µM | > 5 µM |
| Nc1c2c(nc3cc(F)c(F)cc13)CCC2 | 61.2 µM | > 100 µM | > 100 µM | > 100 µM | > 100 µM | > 100 µM | > 100 µM | > 100 µM | > 100 µM | > 100 µM | > 100 µM | > 100 µM | > 100 µM | > 100 µM | > 100 µM | > 100 µM | > 100 µM | > 100 µM | > 100 µM | > 100 µM |
| OC1(C(F)(F)F)OCCN=C1C(F)(F)F (stereo not given) | > 100 µM | > 100 µM | > 100 µM | > 100 µM | > 100 µM | > 100 µM | > 100 µM | > 100 µM | > 100 µM | > 100 µM | > 100 µM | > 100 µM | > 100 µM | > 100 µM | > 100 µM | > 100 µM | > 100 µM | > 100 µM | > 100 µM | > 100 µM |
| CC(=O)O[C@H]1C[C@H]2[C@@H](OC(C)=O)/C=C3\C[C@](C)(C(=O)[C@H](O)C(=C1C)C2(C)C)[C@@H](O)C[C@@H]3OC(=O)[C@H](O)[C@H](c1ccccc1)N(C)C | > 100 µM | > 100 µM | > 100 µM | > 100 µM | > 100 µM | > 100 µM | > 100 µM | > 100 µM | > 100 µM | > 100 µM | > 100 µM | > 100 µM | > 100 µM | > 100 µM | > 100 µM | > 100 µM | > 100 µM | > 100 µM | > 100 µM | > 100 µM |
| COc1ccc(N2C(=O)C(=O)N(c3ccccc3[N+](=O)[O-])C2=S)cc1 | 77.5 µM | 74.8 µM | > 100 µM | > 100 µM | 57.4 µM | > 100 µM | > 100 µM | 74.2 µM | > 100 µM | 53.5 µM | 58.5 µM | 44.9 µM | > 100 µM | 94.2 µM | > 100 µM | 32.5 µM | > 100 µM | > 100 µM | > 100 µM | 47.3 µM |
